Data reported in patent publication US11236129B2, “IL-17A binding peptides and medical uses thereof” (Dompe' Farmaceutici S.P.A., priority 2018, dated 2022).
Residues, ends and D or L forms follow the SMILES beside them.

Each compound was assayed against IL-17RA/IL17RC dimerization induced by IL-17A (Homo sapiens, UniProt Q16552) (assay: IL-17RA/IL17RC dimerization assay in response to IL-17A (PathHunter Cytokine Receptor Assay)). Conditions: IL-17A at EC80; read-out: IC50 in IL-17RA/IL7RC dimerization assay.
Chain of IL-17RA/IL17RC dimerization induced by IL-17A (Q16552 24-155): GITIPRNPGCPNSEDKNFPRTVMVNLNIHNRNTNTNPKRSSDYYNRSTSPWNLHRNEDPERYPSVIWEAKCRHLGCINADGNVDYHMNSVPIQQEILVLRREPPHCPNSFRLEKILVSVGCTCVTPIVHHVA
Assay type: cell-based
In short: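 PathHunter cells with IL-17RA and IL-17RC tagged for β-galactosidase complementation were preincubated 60 min with peptide (1% vehicle). IL-17A was then added at EC80 for 6–16 h at 37 °C, and chemiluminescence was read. Inhibition is relative to the EC80 and vehicle controls.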

Structure (SMILES) | IC50
CC[C@H](C)[C@H](NC(C)=O)C(=O)N[C@@H](Cc1c[nH]cn1)C(=O)N[C@H](C(=O)N[C@H](C(=O)N[C@H](C(=O)N1CCC[C@H]1C(=O)N[C@@H](C)C(=O)N[C@@H](CC(=O)O)C(=O)N[C@@H](CC(C)C)C(=O)N[C@@H](Cc1c[nH]c2ccccc12)C(=O)N[C@@H](CC(=O)O)C(=O)N[C@@H](Cc1c[nH]c2ccccc12)C(=O)N1CCC[C@H]1C(=O)N[C@@H](CC(N)=O)C(=O)N[C@@H](CCCCN)C(N)=O)[C@@H](C)CC)[C@@H](C)O)C(C)C [SEQ ID NO: 217] (Ac-IHVTIPADLWDWPNK-NH2) | < 10 µM
CC[C@H](C)[C@H](NC(C)=O)C(=O)N[C@@H](Cc1c[nH]cn1)C(=O)N[C@H](C(=O)N[C@H](C(=O)N[C@H](C(=O)N1CCC[C@H]1C(=O)N[C@@H](C)C(=O)N[C@@H](CC(=O)O)C(=O)N[C@@H](CC(C)C)C(=O)N[C@@H](Cc1c[nH]c2ccccc12)C(=O)N[C@@H](CC(=O)O)C(=O)N[C@@H](Cc1c[nH]c2ccccc12)C(=O)N[C@@H](Cc1ccccc1)C(=O)N[C@@H](CC(N)=O)C(=O)N[C@@H](CCCCN)C(N)=O)[C@@H](C)CC)[C@@H](C)O)C(C)C [SEQ ID NO: 218] (Ac-IHVTIPADLWDWFNK-NH2) | < 10 µM
CC[C@H](C)[C@H](NC(C)=O)C(=O)N[C@@H](Cc1c[nH]cn1)C(=O)N[C@H](C(=O)N[C@H](C(=O)N[C@H](C(=O)N1CCC[C@H]1C(=O)N[C@@H](C)C(=O)N[C@@H](CC(=O)O)C(=O)N[C@@H](CC(C)C)C(=O)N[C@@H](Cc1c[nH]c2ccccc12)C(=O)N[C@@H](CC(=O)O)C(=O)N[C@@H](Cc1c[nH]c2ccccc12)C(=O)N[C@@H](Cc1ccc(O)cc1)C(=O)N[C@@H](CC(N)=O)C(=O)N[C@@H](CCCCN)C(N)=O)[C@@H](C)CC)[C@@H](C)O)C(C)C [SEQ ID NO: 219] (Ac-IHVTIPADLWDWYNK-NH2) | < 10 µM
CC[C@H](C)[C@H](NC(C)=O)C(=O)N[C@@H](Cc1c[nH]cn1)C(=O)N[C@H](C(=O)N[C@H](C(=O)N[C@H](C(=O)N1CCC[C@H]1C(=O)N[C@@H](C)C(=O)N[C@@H](CC(=O)O)C(=O)N[C@@H](CC(C)C)C(=O)N[C@@H](Cc1c[nH]c2ccccc12)C(=O)N[C@@H](CC(=O)O)C(=O)N[C@@H](Cc1c[nH]c2ccccc12)C(=O)N[C@H](C(=O)N[C@@H](CCC(N)=O)C(=O)N[C@@H](CCCCN)C(N)=O)[C@@H](C)CC)[C@@H](C)CC)[C@@H](C)O)C(C)C [SEQ ID NO: 220] (Ac-IHVTIPADLWDWIQK-NH2) | < 10 µM
CC[C@H](C)[C@H](NC(C)=O)C(=O)N[C@@H](Cc1c[nH]cn1)C(=O)N[C@H](C(=O)N[C@H](C(=O)N[C@H](C(=O)N1CCC[C@H]1C(=O)N[C@@H](C)C(=O)N[C@@H](CC(=O)O)C(=O)N[C@@H](CC(C)C)C(=O)N[C@@H](Cc1c[nH]c2ccccc12)C(=O)N[C@@H](CC(=O)O)C(=O)N[C@@H](Cc1c[nH]c2ccccc12)C(=O)N[C@H](C(=O)N[C@@H](CC(=O)O)C(=O)N[C@@H](CCCCN)C(N)=O)[C@@H](C)CC)[C@@H](C)CC)[C@@H](C)O)C(C)C [SEQ ID NO: 221] (Ac-IHVTIPADLWDWIDK-NH2) | < 10 µM
CC[C@H](C)[C@H](NC(C)=O)C(=O)N[C@@H](Cc1c[nH]cn1)C(=O)N[C@H](C(=O)N[C@H](C(=O)N[C@H](C(=O)N1CCC[C@H]1C(=O)N[C@@H](C)C(=O)N[C@@H](CC(=O)O)C(=O)N[C@@H](CC(C)C)C(=O)N[C@@H](Cc1c[nH]c2ccccc12)C(=O)N[C@@H](CC(=O)O)C(=O)N[C@@H](Cc1c[nH]c2ccccc12)C(=O)N[C@H](C(=O)N[C@@H](CC(N)=O)C(=O)N[C@@H](Cc1c[nH]cn1)C(N)=O)[C@@H](C)CC)[C@@H](C)CC)[C@@H](C)O)C(C)C [SEQ ID NO: 222] (Ac-IHVTIPADLWDWINH-NH2) | < 10 µM
CC[C@H](C)[C@H](NC(C)=O)C(=O)N[C@@H](Cc1c[nH]cn1)C(=O)N[C@H](C(=O)N[C@H](C(=O)N[C@H](C(=O)N1CCC[C@H]1C(=O)N[C@@H](C)C(=O)N[C@@H](CC(=O)O)C(=O)N[C@@H](CC(C)C)C(=O)N[C@@H](Cc1c[nH]c2ccccc12)C(=O)N[C@@H](CC(=O)O)C(=O)N[C@@H](Cc1c[nH]c2ccccc12)C(=O)N[C@H](C(=O)N[C@@H](CC(N)=O)C(=O)N[C@@H](CC(=O)O)C(N)=O)[C@@H](C)CC)[C@@H](C)CC)[C@@H](C)O)C(C)C [SEQ ID NO: 223] (Ac-IHVTIPADLWDWIND-NH2) | < 10 µM
CC(=O)N[C@H](C(=O)N[C@@H](Cc1c[nH]cn1)C(=O)N[C@H](C(=O)N[C@H](C(=O)N[C@H](C(=O)N1CCC[C@H]1C(=O)N[C@@H](CCC(N)=O)C(=O)N[C@@H](CCC(=O)O)C(=O)N[C@@H](CC(C)C)C(=O)N[C@@H](Cc1c[nH]c2ccccc12)C(=O)N[C@@H](CCC(=O)O)C(=O)N[C@@H](Cc1c[nH]c2ccccc12)C(=O)N[C@H](C(=O)N[C@@H](CCCNC(=N)N)C(=O)N[C@@H](CCCNC(=N)N)C(N)=O)C(C)C)C(C)C)[C@@H](C)O)C(C)C)C(C)C [SEQ ID NO: 224] (Ac-VHVTVPQELWEWVRR-NH2) | < 10 µM
CC(=O)N[C@H](C(=O)N[C@@H](Cc1c[nH]cn1)C(=O)N[C@H](C(=O)N[C@H](C(=O)N[C@H](C(=O)N1CCC[C@H]1C(=O)N[C@@H](CCC(N)=O)C(=O)N[C@@H](CCC(=O)O)C(=O)N[C@@H](CC(C)C)C(=O)N[C@@H](Cc1ccccc1)C(=O)N[C@@H](CCC(=O)O)C(=O)N[C@@H](Cc1c[nH]c2ccccc12)C(=O)N[C@H](C(=O)N[C@@H](CCCNC(=N)N)C(=O)N[C@@H](CCCNC(=N)N)C(N)=O)C(C)C)C(C)C)[C@@H](C)O)C(C)C)C(C)C [SEQ ID NO: 225] (Ac-VHVTVPQELFEWVRR-NH2) | < 10 µM
CC(=O)N[C@H](C(=O)N[C@@H](Cc1c[nH]cn1)C(=O)N[C@H](C(=O)N[C@H](C(=O)N[C@H](C(=O)N1CCC[C@H]1C(=O)N[C@@H](CCC(N)=O)C(=O)N[C@@H](CCC(=O)O)C(=O)N[C@@H](CC(C)C)C(=O)N[C@@H](Cc1ccc(O)cc1)C(=O)N[C@@H](CCC(=O)O)C(=O)N[C@@H](Cc1c[nH]c2ccccc12)C(=O)N[C@H](C(=O)N[C@@H](CCCNC(=N)N)C(=O)N[C@@H](CCCNC(=N)N)C(N)=O)C(C)C)C(C)C)[C@@H](C)O)C(C)C)C(C)C [SEQ ID NO: 226] (Ac-VHVTVPQELYEWVRR-NH2) | < 10 µM
CC(=O)N[C@H](C(=O)N[C@@H](Cc1c[nH]cn1)C(=O)N[C@H](C(=O)N[C@H](C(=O)N[C@H](C(=O)N1CCC[C@H]1C(=O)N[C@@H](CCC(N)=O)C(=O)N[C@@H](CCC(=O)O)C(=O)N[C@@H](CC(C)C)C(=O)N[C@@H](Cc1c[nH]c2ccccc12)C(=O)N[C@@H](CCC(=O)O)C(=O)N[C@@H](Cc1c[nH]c2ccccc12)C(=O)N[C@H](C(=O)N[C@@H](CCC(=O)O)C(=O)N[C@@H](CCC(=O)O)C(N)=O)C(C)C)C(C)C)[C@@H](C)O)C(C)C)C(C)C [SEQ ID NO: 227] (Ac-VHVTVPQELWEWVEE-NH2) | < 10 µM
CC(=O)N[C@H](C(=O)N[C@@H](Cc1c[nH]cn1)C(=O)N[C@H](C(=O)N[C@H](C(=O)N[C@H](C(=O)N1CCC[C@H]1C(=O)N[C@@H](CCC(N)=O)C(=O)N[C@@H](CCC(=O)O)C(=O)N[C@@H](CC(C)C)C(=O)N[C@@H](Cc1ccccc1)C(=O)N[C@@H](CCC(=O)O)C(=O)N[C@@H](Cc1c[nH]c2ccccc12)C(=O)N[C@H](C(=O)N[C@@H](CCC(=O)O)C(=O)N[C@@H](CCC(=O)O)C(N)=O)C(C)C)C(C)C)[C@@H](C)O)C(C)C)C(C)C [SEQ ID NO: 228] (Ac-VHVTVPQELFEWVEE-NH2) | < 10 µM
